Literature values, collected in patent publication US20220218650A1, “COMPOSITION AND METHOD FOR TREATING PAIN” (Zelira Therapeutics Operations Pty Ltd, priority 2018, published 2022).

Details: treatment group (5 mg THC); control group 74 mg; difference not statistically significant (n=105)

## CCCCCc1cc(O)c2c(c1)OC(C)(C)[C@@H]1CCC(C)=C[C@@H]21 [dronabinol]
  Median dose of micro-opioid agonist piritramide in the two days post surgery: 54 mg
